Assay: HILIC, Waters ACQUITY UPLC BEH Amide, 100 × 2.1 mm, 1.7 µm; A: water + 0.125% formic acid + 10 mM ammonium formate; B: 5% water + 95% acetonitrile + 0.125% formic acid + 10 mM ammonium formate; gradient (min/%B) 0/100 2/100 7.7/70 9.5/40 10.25/30 12.75/100 17/100
Settings: stereoisomer not certain

Row | Compound | LC retention time
1 | CCCCCC(O)C=CC=O (stereo unspecified) [4-Hydroxynonenal] | 1.07 min
2 | O=C(O)CCc1ccccc1 [Hydrocinnamic acid] | 8.71 min
3 | COc1ccc(C(=O)NCc2ccc(OCCN(C)C)cc2)cc1OC [Itopride] | 3.65 min
4 | CC(C)NCC(O)COc1ccc(CCOCC2CC2)cc1 (stereo unspecified) [Betaxolol] | 3.05 min
5 | COc1ccccc1OCCNCC(O)COc1cccc2[nH]c3ccccc3c12 (stereo unspecified) [Carvedilol] | 3.17 min
6 | O=C(O)C1CSCN1 (stereo unspecified) [Thiazolidine-4-carboxylic acid] | 6.92 min
7 | COc1ccc(-c2cc(=O)c3c(OC)c(OC)c(OC)c(OC)c3o2)cc1OC [Nobiletin] | 1 min
8 | CC(C)CC(=O)OC(CC(=O)[O-])C[N+](C)(C)C [Isovaleryl-L-carnitine] | 5.36 min
9 | COc1cccc(C2(O)CCCCC2CN(C)C)c1 (stereo unspecified) [Tramadol] | 2.52 min
10 | COc1cc(C)nc(-n2nc(C)cc2OC)n1 [Mepirizole] | 1.03 min
11 | COC(=O)CCc1ccc(OCC(O)CNC(C)C)cc1 (stereo unspecified) [Esmolol] | 3.13 min
12 | CCCCN1CCCC1CNC(=O)c1cc(C#N)c2ccccc2c1OC (stereo unspecified) [Nafadotride] | 2.05 min
13 | CCCCCC=CCC=CCC=CCC=CCCCC(=O)Nc1ccc(O)cc1 [AM 404] | 0.97 min
14 | COc1cc2c(cc1OC)C13CCN4CC5=CCOC6CC(=O)N2C1C6C5CC43 (stereo unspecified) [Brucine] | 4.57 min
15 | CCNC(C)Cc1ccc2c(c1)OCO2 (stereo unspecified) [3,4-Methylenedioxyethamphetamine] | 2.94 min
16 | CN1CCN(CCCN2c3ccccc3Sc3ccc(Cl)cc32)CC1 [Prochlorperazine] | 2.56 min
17 | NC(N)=NOCCC(N)C(=O)O (stereo unspecified) [Canavanine] | 9.42 min
18 | CSCCC(NC(=O)CCC(N)C(=O)O)C(=O)O (stereo unspecified) [gamma-Glutamylmethionine] | 8.55 min
19 | NC1CCN(c2cccc(Cl)n2)CC1 | 4.85 min
20 | CCCN1CCCCC1C(=O)Nc1c(C)cccc1C (stereo unspecified) [Ropivacaine] | 2.49 min
21 | OCC1OC(OCC2OC(OC3(CO)OC(CO)C(O)C3O)C(O)C(O)C2O)C(O)C(O)C1O (stereo unspecified) [Raffinose] | 9.17 min
22 | NC(=O)c1ccc[n+](C2OC(CO)C(O)C2O)c1 (stereo unspecified) [Nicotinamide riboside cation] | 7.51 min
23 | C#CC1(O)CCC2C3CCC4=CC(=O)CCC4C3CCC21CC (stereo unspecified) [Levonorgestrel] | 0.99 min

Row | Compound | LC retention time
24 | Cn1c(=N)ccn(C2OC(CO)C(O)C2O)c1=O (stereo unspecified) [3-Methylcytidine] | 6.99 min
25 | O=C(O)CCCCCCCCCCCCCCCCC(=O)O [Octadecanedioic acid] | 1.24 min
26 | NCC(=O)O [Glycine] | 8.33 min
27 | NCC(O)c1ccccc1 (stereo unspecified) [Phenylethanolamine] | 5.51 min
28 | CC12CCC(=O)C=C1CCC1C2CCC2(C)C1CCC2(C)O (stereo unspecified) [Methyltestosterone] | 1.04 min
29 | CN(C)CCN(Cc1ccccc1)c1ccccn1 [Tripelennamine] | 1.98 min
30 | CCCc1nc(C)c2c(=O)[nH]c(-c3cc(S(=O)(=O)N4CCN(CC)CC4)ccc3OCC)nn12 [Vardenafil] | 1.7 min
31 | O=C(O)CNC(=O)OCc1ccccc1 [N-Benzyloxycarbonylglycine] | 7.67 min
32 | CCOC(=O)c1cncn1C(C)c1ccccc1 (stereo unspecified) [Etomidate] | 0.98 min
33 | CC(N)C(O)c1ccccc1 (stereo unspecified) [Phenylpropanolamine] | 5.29 min
34 | Nc1nc2nc[nH]c2c(=O)[nH]1 [Guanine] | 6.4 min
35 | C[N+](C)(C)CC(=O)[O-] [Betaine] | 7.24 min
36 | CCNC(C)Cc1cccc(C(F)(F)F)c1 (stereo unspecified) [Fenfluramine] | 2.33 min
37 | CC=C1N(C)C(C)CC1(c1ccccc1)c1ccccc1 (stereo unspecified) [EDDP] | 1.9 min
38 | COc1c2ccoc2cc2oc(=O)ccc12 [5-Methoxypsoralen] | 1.07 min
39 | CNC[C@H](N)C(=O)O [beta-N-Methylaminoalanine] | 9.32 min
40 | CCC(=O)NS(=O)(=O)c1ccc(-c2c(-c3ccccc3)noc2C)cc1 [Parecoxib] | 0.98 min
41 | NCCCNCCCCNCCCN [Spermine] | 7.24 min
42 | Cc1ncc(CO)c(C=O)c1O [Pyridoxal] | 2.18 min
43 | COC1C(O)C(CO)OC1n1cc(C)c(=O)[nH]c1=O (stereo unspecified) [2'-O-Methyl-5-methyluridine] | 1.75 min
44 | COc1ccc2c3c1OC1CC(O)C=CC31CCN(C)C2 (stereo unspecified) [Galanthamine] | 4.62 min
45 | OCC(O)C(O)CO (stereo unspecified) [Threitol] | 1.56 min

The remaining lines, values ahead:

Row | LC retention time | Compound
46 | 6.83 min | CC(C)C(N)C(=O)OCCOCn1cnc2c(=O)[nH]c(N)nc21 (stereo unspecified) [Valaciclovir]
47 | 7.06 min | N[C@H]1[C@@H](OP(=O)(O)O)O[C@H](CO)[C@H](O)[C@@H]1O [alpha-Galactosamine-1-phosphate]
48 | 4.77 min | Nc1ncnc2c1ncn2C1OC(CO)C(O)C1O (stereo unspecified) [Adenosine]
49 | 5.44 min | CN(C)C(=N)N=C(N)N [Metformin]
50 | 1.18 min | COC1C=COC2(C)Oc3c(C)c(O)c4c(O)c(c5c(nc6cc(C)ccn65)c4c3C2=O)NC(=O)C(C)=CC=CC(C)C(O)C(C)C(O)C(C)C(OC(C)=O)C1C (stereo unspecified) [Rifaximin]
51 | 7.08 min | CC(C)CC(N)C(=O)O (stereo unspecified) [Leucine]
52 | 5.33 min | O=c1cc(-c2ccc(O)cc2)oc2c(C3OC(CO)C(O)C(O)C3O)c(O)cc(O)c12 (stereo unspecified) [Vitexin]
53 | 1.37 min | CC(=O)Nc1ccc(O)cc1 [Acetaminophen]
54 | 1.8 min | O=C1CC2(CCCC2)CC(=O)N1CCNCC1COc2ccccc2O1 (stereo unspecified) [Binospirone]
55 | 1.01 min | O=C(C=Cc1ccccc1O)c1ccccc1 [2-Hydroxychalcone]
56 | 1.26 min | Nc1ccc2cn[nH]c2c1 [6-Aminoindazole]
57 | 1.03 min | O=C1C(CCC(O)c2ccc(F)cc2)C(c2ccc(O)cc2)N1c1ccc(F)cc1 (stereo unspecified) [Ezetimibe]
58 | 4.85 min | O=C(O)CCNC(=O)c1ccc(N=Nc2ccc(O)c(C(=O)O)c2)cc1 [Balsalazide]
59 | 9.47 min | OCC1OC(OC2C(O)OC(CO)C(O)C2O)C(O)C(O)C1O (stereo not drawn) [2-alpha-Mannobiose]
60 | 6.26 min | C[n+]1cccc(C(N)=O)c1 [1-Methylnicotinamide]
61 | 1.2 min | O=CNC1CCCCC1 [N-Cyclohexylformamide]
62 | 1.55 min | Cc1c(O)cccc1C(=O)NC(CSc1ccccc1)C(O)CN1CC2CCCCC2CC1C(=O)NC(C)(C)C (stereo unspecified) [Nelfinavir]
63 | 7.85 min | NCCS(=O)(=O)O [Taurine]
64 | 8.75 min | OCC1OC(OC2C(CO)OC(O)C(O)C2O)C(O)C(O)C1O (stereo unspecified) [Maltose]
65 | 5.18 min | COc1ccc(CC(C)NCC(O)c2ccc(O)c(NC=O)c2)cc1 (stereo unspecified) [Formoterol]
66 | 8.85 min | NC(CCC(=O)O)C(=O)O (stereo unspecified) [Glutamic acid]
67 | 8.88 min | Nc1ncnc2c1ncn2C1OC(COP(=O)(O)O)C(O)C1O (stereo unspecified) [Adenosine 5'-monophosphate]
68 | 4.75 min | OCc1cc(C(O)CNCCCCCCOCCCCc2ccccc2)ccc1O (stereo unspecified) [Salmeterol]

Row | LC retention time | Compound
69 | 2.27 min | O=c1[nH]c(=S)ccn1C1OC(CO)C(O)C1O (stereo unspecified) [4-Thiouridine]
70 | 0.98 min | N#Cc1ccc(C(c2ccc(C#N)cc2)n2cncn2)cc1 [Letrozol]
71 | 4.76 min | CCC1=CC2CN(C1)Cc1c([nH]c3ccccc13)C(C(=O)OC)(c1cc3c(cc1OC)N(C)C1C(O)(C(=O)OC)C(OC(C)=O)C4(CC)C=CCN5CCC31C54)C2 (stereo unspecified) [Vinorelbine]
72 | 1.07 min | Nc1nc2ccc(Cl)cc2c2nc(-c3ccco3)nn12
73 | 1.98 min | Cc1cn(C2OC(CO)C(O)C2O)c(=S)[nH]c1=O (stereo unspecified) [5-Methyl-2-thiouridine]
74 | 4.61 min | CC(=O)OCC1OC(Oc2c(-c3ccc(O)c(O)c3)oc3cc(O)cc(O)c3c2=O)C(O)C(O)C1O (stereo not drawn) [Quercetin-3-O-beta-glucopyranosyl-6'-acetate]
75 | 1.9 min | CC(C)(CO)C(O)C(=O)NCCCO (stereo unspecified) [Panthenol]
76 | 6.44 min | CCC(C)C(NC)C(=O)O (stereo unspecified) [N-Methylisoleucine]
77 | 8.28 min | CC(OC1C(N)C(O)OC(CO)C1O)C(=O)O (stereo unspecified) [Muramic acid]
78 | 4.53 min | COC(=O)C1=COC(OC2OC(CO)C(O)C(O)C2O)C2C(CO)=CCC12 (stereo unspecified) [Geniposide]
79 | 2.31 min | CN1CCC(=C2c3ccccc3C=Cc3ccccc32)CC1 [Cyproheptadine]
80 | 8.47 min | CCCCCCCCO [Octanol]
81 | 1.12 min | COc1ccc(C2CNC(=O)C2)cc1OC1CCCC1 (stereo unspecified) [Rolipram]
82 | 8.16 min | NC(N)=NCC(=O)O [Guanidinoacetic acid]
83 | 0.94 min | COCCOC(=O)C1=C(C)NC(C)=C(C(=O)OC(C)C)C1c1cccc([N+](=O)[O-])c1 (stereo unspecified) [Nimodipine]
84 | 0.96 min | COC1=C(OC)C(=O)C(CCCCCCCCCCO)=C(C)C1=O [Idebenone]
85 | 9.07 min | NC(CCC(=O)NC(CS)C(=O)NCC(=O)O)C(=O)O (stereo unspecified) [Glutathione (reduced)]
86 | 1.64 min | CCN1CC(CCN2CCOCC2)C(c2ccccc2)(c2ccccc2)C1=O (stereo unspecified) [Doxapram]
87 | 7.86 min | NCCCC(=O)O [gamma-Aminobutyric Acid]
88 | 7.38 min | NC(Cc1ccc(O)cc1)C(=O)NC(Cc1ccc(O)cc1)C(=O)O (stereo unspecified) [Tyr-Tyr]
89 | 3.48 min | O=C(CCCN1CC=C(n2c(=O)[nH]c3ccccc32)CC1)c1ccc(F)cc1 [Droperidol]
90 | 1.12 min | Cc1ncc([N+](=O)[O-])n1CC(C)O (stereo unspecified) [Secnidazole]
91 | 2.05 min | NCCS [2-Aminoethanethiol]

Reference: the RepoRT retention time repository
